Experimental findings from US10639284B2, “Immunomodulator compounds” (CHEMOCENTRYX, INC., priority 2016, dated 2020) are described below.

Molecules are shown by their SMILES.

In this test the target is human PD-L1 / Human PD-1 (Homo sapiens (Human), UniProt Q9NZQ7). The experiment in a line: Enzyme-Linked Immunosorbent Assay (ELISA), PD-1/PD-L1 binding. The note with it: Table 2; plate-coated human PD-L1, biotinylated human PD-1; read-out: ELISA IC50. How it is done: Plates were coated with 1 μg/mL of human PD-L1 (obtained from R&D) in PBS overnight at 4° C. The wells were then blocked with PBS containing 2% BSA in PBS (W/V) with 0.05% TWEEN-20 for 1 hour at 37° C. The plates were washed 3 times with PBS/0.05% TWEEN-20 and the samples were diluted to 1:5 in dilution medium in the ELISA plates. Human PD-1 and biotin 0.3 μg/mL (ACRO Biosystems) were added and incubated for 1 hour at 37° C. then washed 3 times with PBS/0.05% TWEEN-20. A second block was added with PBS containing 2% BSA in PBS (W/V)/0.05% TWEEN-20 for 10 min at 37° C. and was washed 3 times with PBS/0.05% TWEEN-20. Streptavidin-HRP was added for 1 hour at 37° C. then washed 3 times with PBS/0.05% TWEEN-20. TMB substrate was added and reacted for 20 min at 37° C. A stop solution (2 N aqueous H2SO4) was added. The absorbance was read at 450 nm using a micro-plate spectrophotometer.
human PD-L1 / Human PD-1, sequence (Q9NZQ7 19-239): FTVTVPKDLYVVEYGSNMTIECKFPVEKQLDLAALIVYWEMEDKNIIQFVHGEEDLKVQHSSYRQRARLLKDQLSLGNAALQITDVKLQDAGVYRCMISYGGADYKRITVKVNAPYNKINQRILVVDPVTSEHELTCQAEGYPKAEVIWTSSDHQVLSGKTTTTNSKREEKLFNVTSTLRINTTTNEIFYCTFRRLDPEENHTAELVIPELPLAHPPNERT
Compounds in Table 2 and Table 3 were prepared by methods as described in the Examples, and evaluated according to the assay below.
Take `N#Cc1cncc(COc2cc(OC3CCc4c(-c5ccccc5)cccc43)c(Cl)cc2CN[C@@H](CO)C(=O)O)c1` (stereo partly drawn) [Example 1.001]: the IC50 was less than 100 nM.
As to `N#Cc1cncc(COc2cc(OC3CCc4c(-c5ccccc5)cccc43)c(Cl)cc2CNC[C@@H](O)CC(=O)O)c1` (stereo partly drawn) [Example 1.002], the IC50 is 100 to 500 nM.
The result for `N#Cc1cncc(COc2cc(OC3CCc4c(-c5ccccc5)cccc43)c(Cl)cc2CNCc2nnn[nH]2)c1` (stereo not drawn) [Example 1.003] reads less than 100 nM.
The figure for `N#Cc1cncc(COc2cc(OC3CCc4c(-c5ccccc5)cccc43)c(Cl)cc2CNCCO)c1` (stereo not drawn) [Example 1.004] is less than 100 nM.
The figure for `N#Cc1cncc(COc2cc(OC3CCc4c(-c5ccccc5)cccc43)c(Cl)cc2CN2CCCC[C@H]2C(=O)O)c1` (stereo partly drawn) [Example 1.005] is less than 100 nM; for `N#Cc1cncc(COc2cc(OC3CCc4c(-c5ccccc5)cccc43)c(Cl)cc2CN2CCC2)c1` (stereo not drawn) [Example 1.006] it is 100 to 500 nM; for `N#Cc1cncc(COc2cc(OC3CCc4c(-c5ccccc5)cccc43)c(Cl)cc2CN2CC(O)C2)c1` (stereo not drawn) [Example 1.007] it is 100 to 500 nM.
Regarding `N#Cc1cncc(COc2cc(O[C@@H]3CCc4c(-c5ccccc5)cccc43)c(Cl)cc2CNC[C@@H](O)CC(=O)O)c1` [Example 1.008], the IC50 is less than 100 nM.
The result for `N#Cc1cncc(COc2cc(O[C@H]3CCc4c(-c5ccccc5)cccc43)c(Cl)cc2CNC[C@@H](O)CC(=O)O)c1` [Example 1.009] reads less than 100 nM; that for `N#Cc1cncc(COc2cc(O[C@H]3CCc4c(-c5ccccc5)cccc43)c(Cl)cc2CNCCn2nn[nH]c2=O)c1` [Example 1.010], 100 to 500 nM; that for `O=C(O)[C@H](CO)NCc1cc(Cl)c(OC2CCc3c(-c4ccccc4)cccc32)cc1OCc1cccnc1` (stereo partly drawn) [Example 1.011], 500 to 20000 nM.
The figure for `CC(C)(O)CNCc1cc(Cl)c(O[C@H]2CCc3c(-c4ccccc4)cccc32)cc1OCc1cncc(C#N)c1` [Example 1.012] is 500 to 20000 nM.
On to `CC(C)(CNCc1cc(Cl)c(O[C@H]2CCc3c(-c4ccccc4)cccc32)cc1OCc1cncc(C#N)c1)C(=O)O` [Example 1.013], for which the IC50 lay within 500 to 20000 nM.
Take `N#Cc1cncc(COc2cc(O[C@H]3CCc4c(-c5ccccc5)cccc43)c(Cl)cc2CNCC2CCC(=O)N2)c1` (stereo partly drawn) [Example 1.014]: the IC50 was 100 to 500 nM.
As for `N#Cc1cncc(COc2cc(O[C@H]3CCc4c(-c5ccccc5)cccc43)c(Cl)cc2CNCc2ccn[nH]2)c1` [Example 1.015], the IC50 fell in the range of 500 to 20000 nM.
For the compound `N#Cc1cncc(COc2cc(O[C@H]3CCc4c(-c5ccccc5)cccc43)c(Cl)cc2CN2CC(O)C2)c1` [Example 2.001], the IC50 is 100 to 500 nM.
The result for `N#Cc1cncc(COc2cc(O[C@H]3CCc4c(-c5ccccc5)cccc43)c(Cl)cc2CN[C@@H](CO)C(=O)O)c1` [Example 2.002] reads less than 100 nM; that for `N#Cc1cncc(COc2cc(O[C@H]3CCc4c(-c5ccccc5)cccc43)c(Cl)cc2CN2CC(C(=O)O)C2)c1` [Example 2.003], less than 100 nM.
The figure for `N#Cc1cncc(COc2cc(O[C@H]3CCc4c(-c5ccccc5F)cccc43)c(Cl)cc2CN[C@@H](CO)C(=O)O)c1` [Example 2.004] is less than 100 nM.
The figure for `N#Cc1cncc(COc2cc(O[C@H]3CCc4c(-c5ccccc5Cl)cccc43)c(Cl)cc2CN[C@@H](CO)C(=O)O)c1` [Example 2.005] is less than 100 nM; for `Cc1ccccc1-c1cccc2c1CC[C@@H]2Oc1cc(OCc2cncc(C#N)c2)c(CN[C@@H](CO)C(=O)O)cc1Cl` [Example 2.006] it is less than 100 nM; for `COc1cc(O[C@H]2CCc3c(-c4ccccc4)cccc32)c(Cl)cc1CN[C@@H](CO)C(=O)O` [Example 2.007] it is 100 to 500 nM.
For the compound `N#Cc1cncc(COc2cc(O[C@H]3CCc4c(-c5ccc(F)cc5)cccc43)c(Cl)cc2CN[C@@H](CO)C(=O)O)c1` [Example 2.008], the IC50 lay within 100 to 500 nM.
Turning to `COc1ccccc1-c1cccc2c1CC[C@@H]2Oc1cc(OCc2cncc(C#N)c2)c(CN[C@@H](CO)C(=O)O)cc1Cl` [Example 2.009], the IC50 lay within 500 to 20000 nM.
As for `N#Cc1cncc(COc2cc(O[C@H]3CCc4c(-c5cccc(F)c5)cccc43)c(Cl)cc2CN[C@@H](CO)C(=O)O)c1` [Example 2.010], the IC50 is less than 100 nM.
With `CC(C)Oc1cc(O[C@H]2CCc3c(-c4ccccc4)cccc32)c(Cl)cc1CN[C@@H](CO)C(=O)O` [Example 2.011], the IC50 lay within 500 to 20000 nM.
For `Cc1cccc(-c2cccc3c2CC[C@@H]3Oc2cc(OCc3cncc(C#N)c3)c(CN[C@@H](CO)C(=O)O)cc2Cl)c1` [Example 2.012], the IC50 lay in the range of 500 to 20000 nM.
As to `COc1ccc(-c2cccc3c2CC[C@@H]3Oc2cc(OCc3cncc(C#N)c3)c(CN[C@@H](CO)C(=O)O)cc2Cl)cc1` [Example 2.014], the IC50 is 100 to 500 nM.
Consider `COc1cccc(-c2cccc3c2CC[C@@H]3Oc2cc(OCc3cncc(C#N)c3)c(CN[C@@H](CO)C(=O)O)cc2Cl)c1` [Example 2.015], for which the IC50 was less than 100 nM.
The result for `N#Cc1cncc(COc2cc(O[C@H]3CCc4c(-c5ccc(Cl)c(Cl)c5)cccc43)c(Cl)cc2CN[C@@H](CO)C(=O)O)c1` [Example 2.016] reads 500 to 20000 nM; that for `N#Cc1cncc(COc2cc(O[C@H]3CCc4c(-c5ccccc5F)cccc43)c(Cl)cc2CNC23CC(C2)C3)c1` [Example 2.017], 500 to 20000 nM; that for `N#Cc1cncc(COc2cc(O[C@H]3CCc4c(-c5ccccc5F)cccc43)c(Cl)cc2CN2CC(O)(C(=O)O)C2)c1` [Example 2.018], 100 to 500 nM.
The result for `N#Cc1cncc(COc2cc(O[C@H]3CCc4c(-c5ccccc5F)cccc43)c(Cl)cc2CN2CC[C@@H](O)C2)c1` [Example 2.019] reads less than 100 nM; that for `N#Cc1cncc(COc2cc(O[C@H]3CCc4c(-c5ccccc5F)cccc43)c(Cl)cc2CN2CC[C@H](O)C2)c1` [Example 2.020], 100 to 500 nM; that for `COc1ccc(-c2cccc3c2CC[C@@H]3Oc2cc(OCc3cncc(C#N)c3)c(CN[C@@H](CO)C(=O)O)cc2Cl)cc1OC` [Example 2.021], 500 to 20000 nM.
The result for `N#Cc1cncc(COc2cc(O[C@H]3CCc4c(-c5ccccc5F)cccc43)c(Cl)cc2CN2CCC(O)(C(=O)O)C2)c1` (stereo partly drawn) [Example 2.022] reads less than 100 nM; that for `COc1ccc(-c2cccc3c2CC[C@@H]3Oc2cc(OCc3cncc(C#N)c3)c(CN[C@@H](CO)C(=O)O)cc2Cl)cc1C` [Example 2.023], 100 to 500 nM.
Consider `N#Cc1cncc(COc2cc(O[C@H]3CCc4c(-c5ccc6c(c5)OCCO6)cccc43)c(Cl)cc2CN[C@@H](CO)C(=O)O)c1` [Example 2.024], for which the IC50 was less than 100 nM.
The figure for `N#Cc1cncc(COc2cc(O[C@H]3CCc4c(-c5ccccc5F)cccc43)c(Cl)cc2CNCc2cnn[nH]2)c1` [Example 2.025] is 100 to 500 nM; for `Cc1cc(-c2cccc3c2CC[C@@H]3Oc2cc(OCc3cncc(C#N)c3)c(CN[C@@H](CO)C(=O)O)cc2Cl)ccc1N(C)C` [Example 2.026] it is 500 to 20000 nM; for `CN(C)c1cccc(-c2cccc3c2CC[C@@H]3Oc2cc(OCc3cncc(C#N)c3)c(CN[C@@H](CO)C(=O)O)cc2Cl)c1` [Example 2.027] it is 500 to 20000 nM.
As to `COc1cccc(-c2cccc3c2CC[C@@H]3Oc2cc(OCc3cncc(C#N)c3)c(CN[C@@H](CO)C(=O)O)cc2Cl)c1F` [Example 2.028], the IC50 was less than 100 nM.
On to `N#Cc1cncc(COc2cc(O[C@H]3CCc4c(-c5ccccc5F)cccc43)c(Cl)cc2CN2CCC(O)CC2)c1` [Example 2.029], for which the IC50 was less than 100 nM.
The figure for `N#Cc1cncc(COc2cc(O[C@H]3CCc4c(-c5ccccc5F)cccc43)c(Cl)cc2CN2CCCC(O)C2)c1` (stereo partly drawn) [Example 2.030] is 100 to 500 nM; for `CN(C)Cc1cc(Cl)c(O[C@H]2CCc3c(-c4ccccc4F)cccc32)cc1OCc1cncc(C#N)c1` [Example 2.031] it is less than 100 nM; for `N#Cc1cncc(COc2cc(O[C@H]3CCc4c(-c5ccccc5F)cccc43)c(Cl)cc2CN2CCC(C(=O)O)C2)c1` (stereo partly drawn) [Example 2.032] it is less than 100 nM.
The figure for `CC(C)c1cccc(-c2cccc3c2CC[C@@H]3Oc2cc(OCc3cncc(C#N)c3)c(CN[C@@H](CO)C(=O)O)cc2Cl)c1` [Example 2.033] is 500 to 20000 nM; for `CC(C)c1ccccc1-c1cccc2c1CC[C@@H]2Oc1cc(OCc2cncc(C#N)c2)c(CN[C@@H](CO)C(=O)O)cc1Cl` [Example 2.034] it is 100 to 500 nM; for `CCc1ccccc1-c1cccc2c1CC[C@@H]2Oc1cc(OCc2cncc(C#N)c2)c(CN[C@@H](CO)C(=O)O)cc1Cl` [Example 2.035] it is 100 to 500 nM.
As to `CCOc1cc(O[C@H]2CCc3c(-c4ccccc4F)cccc32)c(Cl)cc1CN[C@@H](CO)C(=O)O` [Example 2.036], the IC50 was less than 100 nM.
Regarding `N#Cc1cncc(COc2cc(O[C@H]3CCc4c(-c5ccccc5F)cccc43)c(Cl)cc2CN2CC(O)C2)c1` [Example 2.037], the IC50 is less than 100 nM.
Take `O=C(O)[C@H](CO)NCc1cc(Cl)c(O[C@H]2CCc3c(-c4ccccc4F)cccc32)cc1OCC1CC1` [Example 2.038]: the 50% inhibitory concentration (IC50) fell in the range of 100 to 500 nM.
`COc1cc(O[C@H]2CCc3c(-c4ccc5c(c4)OCCO5)cccc32)c(Cl)cc1CN[C@@H](CO)C(=O)O` [Example 2.039]: the IC50 is less than 100 nM.
In the case of `COc1cc(O[C@H]2CCc3c(-c4cccc(OC)c4F)cccc32)c(Cl)cc1CN[C@@H](CO)C(=O)O` [Example 2.040], the IC50 was less than 100 nM.

By IC50 is commonly meant the concentration needed to halve the response being measured.
